According to patent US20130143256A1, “LIQUID-BASED METHOD FOR PRODUCING PLANT EMBRYOS” (ArborGen Inc., priority 2006, published 2013):

What was measured:
Assay type in all cases: cell-based, loblolly pine
cell line I = test: Effect of maltose on embryo production in liquid EDM, cell line I; settings: for Total Avg. Potential Embryos: 30 ml
Method: (§1) Suspension cultures of the following four loblolly pine genotypes, I, B, M, and N, were tested. Each cell line or genotype was initiated from an individual immature seed explant derived from a control pollinated cross of select parent trees of loblolly pine. Five variations in the Liquid EDM listed in Table 1 were tested for development of loblolly pine somatic embryos in liquid. The five treatments were coded 1, 2, 3, 4 and 5 according to the concentration of maltose in the liquid medium, 0, 10, 20, 40 and 60 g/l, respectively. The proliferating embryogenic suspension cultures were poured in the side arm of the flask for 30 minutes to measure the settled cell volume (SCV) as described in example 2. A sub-sample of 12 ml of proliferating liquid suspension was removed for baseline development plating on five plates of MSG gelled embryo development medium for comparative purposes. The SCV measurement was recorded and the proliferating liquid suspensions were distributed among the treatments listed above. Each treatment flask was initiated by placing 15 milliliters of 100% SCV onto a raft placed on a Buchner funnel and the excess liquid was removed through gentle vacuum aspiration. The tissues were then re-suspended into a 250 ml sidearm flask with 30 milliliters of Liquid Embryo Development Media with various maltose concentrations (from 0 to 60 g/l). Once the cultures were re-suspended in liquid EDM the suspensions were poured in the sidearm to settle in the sidearm for thirty minutes to measure the SCV. Each treatment had three replicate flasks. The SCV measurements were recorded and the flasks were placed on the shaker in the dark, 24° C. growth chamber and monitored on a weekly basis for five weeks as described below. the liquid embryo development suspensions were poured into the sidearm and allowed to settle in the sidearm for 30 minutes and the SCV measured and recorded. Each flask was sub-cultured as needed by adding liquid EDM to maintain the suspension density at 50%. This sequence of events was repeated at week two and week three. no media manipulation. The cultures were observed and placed back on the shaker. At week five the embryos were harvested as described in example 6 with the exception of using a 560 μm mesh to wash embryos. Half of the embryos were conditioned as described in example 6 and half were conditioned by the method described in U.S. Application Ser. No. 60/675, 949 simply for comparative purposes.

cell line B = test: Effect of maltose on embryo production in liquid EDM, cell line B; settings: for Total Avg. Potential Embryos: 30 ml
Method: as §1

cell line M = test: Effect of maltose on embryo production in liquid EDM, cell line M; settings: highest (60 g/L) concentration of maltose
Method: (§2) Suspension cultures of the following four loblolly pine genotypes, I, B, M, and N, were tested. Each cell line or genotype was initiated from an individual immature seed explant derived from a control pollinated cross of select parent trees of loblolly pine. Five variations in the Liquid EDM listed in Table 1 were tested for development of loblolly pine somatic embryos in liquid. The five treatments were coded 1, 2, 3, 4 and 5 according to the concentration of maltose in the liquid medium, 0, 10, 20, 40 and 60 g/l, respectively. The proliferating embryogenic suspension cultures were poured in the side arm of the flask for 30 minutes to measure the settled cell volume (SCV) as described in example 2. A sub-sample of 12 ml of proliferating liquid suspension was removed for baseline development plating on five plates of MSG gelled embryo development medium for comparative purposes. The SCV measurement was recorded and the proliferating liquid suspensions were distributed among the treatments listed above. […] The SCV measurements were recorded and the flasks were placed on the shaker in the dark, 24° C. growth chamber and monitored on a weekly basis for five weeks as described below. the liquid embryo development suspensions were poured into the sidearm and allowed to settle in the sidearm for 30 minutes and the SCV measured and recorded. […]

cell line N = test: Effect of maltose on embryo production in liquid EDM, cell line N; settings: maltose 0 to 60 g/l
Method: as §2

[1] = tested on: pine somatic embryos, genotype B; test: Germination of embryos developed at varying maltose concentration, genotype B
Method: (§3) In this particular experiment, after the 3 week conditioning treatment, the embryos on the membrane were placed on modMS germination medium in a lighted culture room at 24° C. After 3 to 5 days the embryos were individually removed from the membrane and transferred directly to the surface of modMS germination medium and cultured for an additional 2 weeks in a lighted growth room at 24° C. Embryo germination, which in this particular instance was estimated by identifying the emergence of a root from the embryo that was at least 1 cm long during this 2 week time period. Twenty-nine percent of the embryos harvested from liquid EDM germinated. Embryos were harvested and prepared for germination using two conditioning treatments: (1) exposure to high relative humidity for 3 weeks at 24° C. […] Embryos were then germinated as previously described in Example 5.

[2] = tested on: pine somatic embryos, genotype I; test: Germination of embryos developed at varying maltose concentration, genotype I
Method: as §3

[3] = cell line I, maltose 10 g/l, week 5
[4] = cell line I, maltose 20 g/l, week 5
[5] = cell line I, maltose 40 g/l, week 5
[6] = cell line I, maltose 60 g/l, week 5
[7] = cell line B, maltose 10 g/l, week 5
[8] = cell line B, maltose 20 g/l, week 5
[9] = cell line B, maltose 40 g/l, week 5
[10] = cell line B, maltose 60 g/l, week 5
[11] = Cond 1: 3 wk HRH, maltose conc. 1%
[12] = Cond 1: 3 wk HRH, maltose conc. 2%
[13] = Cond 1: 3 wk HRH, maltose conc. 4%
[14] = Cond 1: 3 wk HRH, maltose conc. 6%
[15] = Cond 2: 4 wk cold & 3 wk HRH, maltose conc. 1%
[16] = Cond 2: 4 wk cold & 3 wk HRH, maltose conc. 2%
[17] = Cond 2: 4 wk cold & 3 wk HRH, maltose conc. 4%
[18] = Cond 2: 4 wk cold & 3 wk HRH, maltose conc. 6%

Q: Which “production of fully developed embryos” value (cell line I; cell line I, all liquid EDM treatments that contained maltose (10 to 60 g/l)) does the source give for `OC[C@H]1O[C@H](O[C@H]2[C@H](O)[C@@H](O)C(O)O[C@@H]2CO)[C@H](O)[C@@H](O)[C@@H]1O` (mixture of isomers) [maltose] here?
A: Fully developed embryos were produced

Q: And the “Avg. Embryos” value (cell line I; cell line I, maltose 10 g/l)?
A: 206 per g tissue

Q: And the “Total Avg. Potential Embryos” value (cell line I; cell line I, maltose 10 g/l)?
A: 464 per flask

Q: What about the “Avg. Embryos” value (cell line I; [3]) of the same molecule?
A: 16 per ml

Q: And the “Avg. ± st. dev. Embryos harvested” value (cell line I; [3])?
A: 232 ± 14 per 15 ml

Q: And the “Avg. Embryos” value (cell line I; cell line I, maltose 20 g/l)?
A: 216 per g tissue

Q: And the “Total Avg. Potential Embryos” value (cell line I; cell line I, maltose 20 g/l)?
A: 486 per flask

Q: What about the “Avg. Embryos” value (cell line I; [4]) of the same molecule?
A: 14 per ml

Q: What about the “Avg. ± st. dev. Embryos harvested” value (cell line I; [4]) of the same molecule?
A: 243 ± 60 per 15 ml

Q: And the “Avg. Embryos” value (cell line I; cell line I, maltose 40 g/l)?
A: 237 per g tissue

Q: And the “Total Avg. Potential Embryos” value (cell line I; cell line I, maltose 40 g/l)?
A: 526 per flask

Q: What about the “Avg. Embryos” value (cell line I; [5]) of the same molecule?
A: 16 per ml

Q: And the “Avg. ± st. dev. Embryos harvested” value (cell line I; [5])?
A: 263 ± 22 per 15 ml

Q: What about the “Avg. Embryos” value (cell line I; cell line I, maltose 60 g/l) of the same molecule?
A: 290 per g tissue

Q: And the “Total Avg. Potential Embryos” value (cell line I; cell line I, maltose 60 g/l)?
A: 702 per flask

Q: What about the “Avg. Embryos” value (cell line I; [6]) of the same molecule?
A: 20 per ml

Q: What about the “Avg. ± st. dev. Embryos harvested” value (cell line I; [6]) of the same molecule?
A: 351 ± 66 per 15 ml

Q: And the “average number of embryos produced per total volume of medium used (discarded and saved)” value (cell line I; line I, 40 g/l maltose, 70 ml medium)?
A: 7.5 embryos per total ml media used

Q: And the “average number of embryos produced per ml of total media used” value (cell line I; line I, across maltose levels from 10 to 60 g/l)?
A: 8.3 per ml

Q: What about the “production of fully developed embryos” value (cell line B; cell line B, all liquid EDM treatments that contained maltose (10 to 60 g/l)) of the same molecule?
A: Fully developed embryos were produced

Q: What about the “Avg. Embryos” value (cell line B; cell line B, maltose 10 g/l) of the same molecule?
A: 189 per g tissue

Q: And the “Total Avg. Potential Embryos” value (cell line B; cell line B, maltose 10 g/l)?
A: 464 per flask

Q: And the “Avg. Embryos” value (cell line B; [7])?
A: 17 per ml

Q: What about the “Avg. ± st. dev. Embryos harvested” value (cell line B; [7]) of the same molecule?
A: 232 ± 84 per 15 ml

Q: What about the “Avg. Embryos” value (cell line B; cell line B, maltose 20 g/l) of the same molecule?
A: 218 per g tissue

Q: What about the “Total Avg. Potential Embryos” value (cell line B; cell line B, maltose 20 g/l) of the same molecule?
A: 526 per flask

Q: What about the “Avg. Embryos” value (cell line B; [8]) of the same molecule?
A: 18 per ml

Q: What about the “Avg. ± st. dev. Embryos harvested” value (cell line B; [8]) of the same molecule?
A: 263 ± 76 per 15 ml

Q: And the “Avg. Embryos” value (cell line B; cell line B, maltose 40 g/l)?
A: 165 per g tissue

Q: What about the “Total Avg. Potential Embryos” value (cell line B; cell line B, maltose 40 g/l) of the same molecule?
A: 422 per flask

Q: What about the “Avg. Embryos” value (cell line B; [9]) of the same molecule?
A: 15 per ml

Q: What about the “Avg. ± st. dev. Embryos harvested” value (cell line B; [9]) of the same molecule?
A: 211 ± 281 per 15 ml

Q: What about the “Avg. Embryos” value (cell line B; cell line B, maltose 60 g/l) of the same molecule?
A: 89 per g tissue

Q: And the “Total Avg. Potential Embryos” value (cell line B; cell line B, maltose 60 g/l)?
A: 240 per flask

Q: And the “Avg. Embryos” value (cell line B; [10])?
A: 8 per ml

Q: And the “Avg. ± st. dev. Embryos harvested” value (cell line B; [10])?
A: 120 ± 20 per 15 ml

Q: What about the “average number of embryos produced per ml of total media used” value (cell line B; line B, across maltose levels from 10 to 60 g/l) of the same molecule?
A: 5.6 per ml

Q: What about the “response to increasing maltose” value (cell line M) of the same molecule?
A: producing embryos that had not fully development

Q: What about the “response to maltose treatments” value (cell line N) of the same molecule?
A: did not respond

Q: What about the Germination [1, 11] of the same molecule?
A: 9%

Q: What about the Germination [1, 12] of the same molecule?
A: 8%

Q: And the Germination [1, 13]?
A: 8%

Q: What about the Germination [1, 14] of the same molecule?
A: 41%

Q: What about the Germination [1, 15] of the same molecule?
A: 5%

Q: What about the Germination [1, 16] of the same molecule?
A: 3%

Q: And the Germination [1, 17]?
A: 24%

Q: And the Germination [1, 18]?
A: 29%

Q: And the Germination [2, 11]?
A: 37%

Q: What about the Germination [2, 12] of the same molecule?
A: 40%

Q: What about the Germination [2, 13] of the same molecule?
A: 33%

Q: And the Germination [2, 14]?
A: 19%

Q: What about the Germination [2, 15] of the same molecule?
A: 21%

Q: And the Germination [2, 16]?
A: 55%

Q: What about the Germination [2, 17] of the same molecule?
A: 48%

Q: And the Germination [2, 18]?
A: 27%
